Measurements from patent US5143916A, “Naphthylpiperazines useful as 5-HT1A receptor ligands” (Adir et Compagnie, priority 1989, dated 1992).

Experiments:
[1] = Antihypertensive activity: arterial blood pressure and heart rate in anesthetized mongrel dogs (i.v.); type: in vivo
Protocol: Mongrel dogs (male and female) are anesthetized with phenobarbital (30 mg/kg i.v.) and then placed in artificial respiration (Bird Mark VII respirator). Arterial blood pressure is measured by means of a catheter placed in the abdominal aorta via the femoral artery. This catheter is connected to a pressure cell (Statham® R23 D6) linked to a recorder.
Heart rate is measured by means of a Gould Biotach®.
Sympathetic nervous activity is recorded from the renal nerve by means of a silver electrode. The amplified signal is visualized on an oscilloscope (Tektronix 5115®) and then measured in μV by means of a Gould integrator.

[2] = dog, in vivo; cited from earlier work
5-HT1A receptors = conditions: European Journal of Pharmacology, (1988), 149, p. 213-223; cited from earlier work

With `O=C(NCCN1CCN(c2cccc3c2OC[C@H](CO)O3)CC1)c1ccc(F)cc1` (racemic) [Flesinoxan, racemic] as the compound, how does the “Effect on arterial blood pressure” value ([1]; 10 μg/kg i.v.) read?
The value was 0 mm/Hg.

What about the “Effect on heart rate” value ([1]; 10 μg/kg i.v.) of the same compound?
Its value is 0 Beats/min.

What about the “Effect on heart rate” value ([1]; 30 μg/kg i.v.) of the same compound?
The value was 0 Beats/min.

Which “Relative activity of flesinoxan isomers” value [2] does the source give for `O=C(NCCN1CCN(c2cccc3c2OC[C@H](CO)O3)CC1)c1ccc(F)cc1` (single isomer, unassigned) [Flesinoxan, (+) isomer] here?
The value was “the more active isomer”.

For `O=C(NCCN1CCN(c2cccc3c2OC[C@H](CO)O3)CC1)c1ccc(F)cc1` [flesinoxan], which “5-HT1A receptor agonist activity, antihypertensive properties” value (5-HT1A receptors) is on record?
Its value is “antihypertensive properties due to its 5-HT1A receptor agonist activity”.
